pEC50: −log10 of the molar value.
Columns and labels:
Assay type in all cases: cell-based, hepatitis C virus (genotype 1a-H77)
[1] = tested on: HCV replicon with a R155K mutation in a 1a-H77 background; assay: transient replicon assay, R155K mutation in 1a-H77 background; conditions: Hepatitis C virus, read-out: EC50 in a transient replicon assay with a R155K mutation in a 1a-H77 background
In short: (§1)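 Transient transfection of mutant replicon RNA (1a-H77 with NS2–NS5B, or 1b-N with NS3–NS5B plus E1202G/S2204I) by electroporation into IFN-cured Huh7 cells, plated at 7.5×10^3 cells per well in DMEM with 5% FBS. Serial compound dilutions added 4 h post-transfection (0.5% DMSO final).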

[2] = tested on: HCV replicon with a D168V mutation in a 1a-H77 background; assay: transient replicon assay, D168V mutation in 1a-H77 background; conditions: Hepatitis C virus, read-out: EC50 in a transient replicon assay with a D168V mutation in a 1a-H77 background
In short: as §1

[3] = tested on: HCV replicon with a D168E mutation in a 1a-H77 background; assay: transient replicon assay, D168E mutation in 1a-H77 background; conditions: Hepatitis C virus, read-out: EC50 in a transient replicon assay with a D168E mutation in a 1a-H77 background
In short: as §1

SMILES | pEC50 [1] | pEC50 [2] | pEC50 [3]
Cc1cc(C(=O)N[C@H]2CCCCC/C=C\[C@@H]3C[C@@]3(C(=O)NS(=O)(=O)C3(C)CC3)NC(=O)[C@@H]3C[C@@H](Oc4nc5c(F)cccc5nc4C(F)(F)F)CN3C2=O)no1 [Example 115, N-((2R,6S,13aS,14aR,16aS,Z)-2-(8-fluoro-3-(trifluoromethyl)quinoxalin-2-yloxy)-14a-(1-methylcyclopropylsulfonylcarbamoyl)-5,16-dioxo-1,2,3,5,6,7,8,9,10,11,13a,14,14a,15,16,16a-hexadecahydrocyclopropa[e]pyrrolo[1,2-a][1,4]diazacyclopentadecin-6-yl)-5-methylisoxazole-3-carboxamide] | > 9.00 | > 7.60 | > 8.52
CC(C)(C)OC(=O)N[C@H]1CCCCC/C=C\[C@@H]2C[C@@]2(C(=O)NS(=O)(=O)C2CC2)NC(=O)[C@@H]2C[C@@H](Oc3nc4cc(F)ccc4nc3C(C)(F)F)CN2C1=O [Example 116, tert-butyl (2R,6S,13aS,14aR,16aS,Z)-14a-(cyclopropylsulfonylcarbamoyl)-2-(3-(1,1-difluoroethyl)-7-fluoroquinoxalin-2-yloxy)-5,16-dioxo-1,2,3,5,6,7,8,9,10,11,13a,14,14a,15,16,16a-hexadecahydrocyclopropa[e]pyrrolo[1,2-a][1,4]diazacyclopentadecin-6-ylcarbamate] | > 9.00 | 7.30 to 7.60 | 7.70 to 8.52
CC(C)(C)OC(=O)N[C@H]1CCCCC/C=C\[C@@H]2C[C@@]2(C(=O)NS(=O)(=O)C2(C)CC2)NC(=O)[C@@H]2C[C@@H](Oc3nc4cc(F)ccc4nc3C(C)(F)F)CN2C1=O [Example 118, tert-butyl (2R,6S,13aS,14aR,16aS,Z)-2-(3-(1,1-difluoroethyl)-7-fluoroquinoxalin-2-yloxy)-14a-(1-methylcyclopropylsulfonylcarbamoyl)-5,16-dioxo-1,2,3,5,6,7,8,9,10,11,13a,14,14a,15,16,16a-hexadecahydrocyclopropa[e]pyrrolo[1,2-a][1,4]diazacyclopentadecin-6-ylcarbamate] | 8.00 to 9.00 | 6.00 to 6.60 | < 7.00
Cc1onc(C(=O)N[C@H]2CCCCC/C=C\[C@@H]3C[C@@]3(C(=O)NS(=O)(=O)C3(C)CC3)NC(=O)[C@@H]3C[C@@H](Oc4nc5cc(F)ccc5nc4C(C)(F)F)CN3C2=O)c1C [Example 120, N-((2R,6S,13aS,14aR,16aS,Z)-2-(3-(1,1-difluoroethyl)-7-fluoroquinoxalin-2-yloxy)-14a-(1-methylcyclopropylsulfonylcarbamoyl)-5,16-dioxo-1,2,3,5,6,7,8,9,10,11,13a,14,14a,15,16,16a-hexadecahydrocyclopropa[e]pyrrolo[1,2-a][1,4]diazacyclopentadecin-6-yl)-4,5-methylisoxazole-3-carboxamide] | > 9.00 | > 7.60 | > 8.52
CCc1nc2ccc(F)cc2nc1O[C@@H]1C[C@H]2C(=O)N[C@]3(C(=O)NS(=O)(=O)C4CC4)C[C@H]3/C=C\CCCCC[C@H](NC(=O)OC(C)(C)C)C(=O)N2C1 [Example 121, tert-butyl (2R,6S,13aS,14aR,16aS,Z)-14a-(cyclopropylsulfonylcarbamoyl)-2-(3-ethyl-7-fluoroquinoxalin-2-yloxy)-5,16-dioxo-1,2,3,5,6,7,8,9,10,11,13a,14,14a,15,16,16a-hexadecahydrocyclopropa[e]pyrrolo[1,2-a][1,4]diazacyclopentadecin-6-ylcarbamate] | 8.00 to 9.00 | 6.60 to 7.30 | 7.70 to 8.52
CCc1nc2ccc(F)cc2nc1O[C@@H]1C[C@H]2C(=O)N[C@]3(C(=O)NS(=O)(=O)C4CC4)C[C@H]3/C=C\CCCCC[C@H](NC(=O)c3ccon3)C(=O)N2C1 [Example 122, N-((2R,6S,13aS,14aR,16aS,Z)-14a-(cyclopropylsulfonylcarbamoyl)-2-(3-ethyl-7-fluoroquinoxalin-2-yloxy)-5,16-dioxo-1,2,3,5,6,7,8,9,10,11,13a,14,14a,15,16,16a-hexadecahydrocyclopropa[e]pyrrolo[1,2-a][1,4]diazacyclopentadecin-6-yl)isoxazole-3-carboxamide] | 8.00 to 9.00 | 6.00 to 6.60 | 7.30 to 7.70
CCc1nc2ccc(F)cc2nc1O[C@@H]1C[C@H]2C(=O)N[C@]3(C(=O)NS(=O)(=O)C4CC4)C[C@H]3/C=C\CCCCC[C@H](NC(=O)c3noc(C)c3C)C(=O)N2C1 [Example 123, N-((2R,6S,13aS,14aR,16aS,Z)-14a-(cyclopropylsulfonylcarbamoyl)-2-(3-ethyl-7-fluoroquinoxalin-2-yloxy)-5,16-dioxo-1,2,3,5,6,7,8,9,10,11,13a,14,14a,15,16,16a-hexadecahydrocyclopropa[e]pyrrolo[1,2-a][1,4]diazacyclopentadecin-6-yl)-4,5-dimethylisoxazole-3-carboxamide] | 8.00 to 9.00 | 6.60 to 7.30 | 7.70 to 8.52
CCc1nc2ccc(F)cc2nc1O[C@@H]1C[C@H]2C(=O)N[C@]3(C(=O)NS(=O)(=O)C4CC4)C[C@H]3/C=C\CCCCC[C@H](NC(=O)c3cc(C)on3)C(=O)N2C1 [Example 124, N-((2R,6S,13aS,14aR,16aS,Z)-14a-(cyclopropylsulfonylcarbamoyl)-2-(3-ethyl-7-fluoroquinoxalin-2-yloxy)-5,16-dioxo-1,2,3,5,6,7,8,9,10,11,13a,14,14a,15,16,16a-hexadecahydrocyclopropa[e]pyrrolo[1,2-a][1,4]diazacyclopentadecin-6-yl)-5-methylisoxazole-3-carboxamide] | 8.00 to 9.00 | 6.60 to 7.30 | 7.30 to 7.70
CCc1nc2ccc(F)cc2nc1O[C@@H]1C[C@H]2C(=O)N[C@]3(C(=O)NS(=O)(=O)C4(C)CC4)C[C@H]3/C=C\CCCCC[C@H](NC(=O)OC(C)(C)C)C(=O)N2C1 [Example 125, tert-butyl (2R,6S,13aS,14aR,16aS,Z)-2-(3-ethyl-7-fluoroquinoxalin-2-yloxy)-14a-(1-methylcyclopropylsulfonylcarbamoyl)-5,16-dioxo-1,2,3,5,6,7,8,9,10,11,13a,14,14a,15,16,16a-hexadecahydrocyclopropa[e]pyrrolo[1,2-a][1,4]diazacyclopentadecin-6-ylcarbamate] | > 9.00 | 7.30 to 7.60 | 7.70 to 8.52
CCc1nc2ccc(F)cc2nc1O[C@@H]1C[C@H]2C(=O)N[C@]3(C(=O)NS(=O)(=O)C4(C)CC4)C[C@H]3/C=C\CCCCC[C@H](NC(=O)c3cc(C4CC4)on3)C(=O)N2C1 [Example 151, 5-cyclopropyl-N-((2R,6S,13aS,14aR,16aS,Z)-2-(3-ethyl-7-fluoroquinoxalin-2-yloxy)-14a-(1-methylcyclopropylsulfonylcarbamoyl)-5,16-dioxo-1,2,3,5,6,7,8,9,10,11,13a,14,14a,15,16,16a-hexadecahydrocyclopropa[e]pyrrolo[1,2-a][1,4]diazacyclopentadecin-6-yl)isoxazole-3-carboxamide] | 8.00 to 9.00 | > 7.60 | 7.70 to 8.52
CCc1nc2cccc(F)c2nc1O[C@@H]1C[C@H]2C(=O)N[C@]3(C(=O)NS(=O)(=O)C4CC4)C[C@H]3/C=C\CCCCC[C@H](NC(=O)OC(C)(C)C)C(=O)N2C1 [Example 160, tert-butyl (2R,6S,13aS,14aR,16aS,Z)-14a-(cyclopropylsulfonylcarbamoyl)-2-(3-ethyl-8-fluoroquinoxalin-2-yloxy)-5,16-dioxo-1,2,3,5,6,7,8,9,10,11,13a,14,14a,15,16,16a-hexadecahydrocyclopropa[e]pyrrolo[1,2-a][1,4]diazacyclopentadecin-6-ylcarbamate] | 8.00 to 9.00 | 6.60 to 7.30 | 7.30 to 7.70
CCc1nc2cccc(F)c2nc1O[C@@H]1C[C@H]2C(=O)N[C@]3(C(=O)NS(=O)(=O)C4CC4)C[C@H]3/C=C\CCCCC[C@H](NC(=O)c3ccon3)C(=O)N2C1 [Example 161, N-((2R,6S,13aS,14aR,16aS,Z)-14a-(cyclopropylsulfonylcarbamoyl)-2-(3-ethyl-8-fluoroquinoxalin-2-yloxy)-5,16-dioxo-1,2,3,5,6,7,8,9,10,11,13a,14,14a,15,16,16a-hexadecahydrocyclopropa[e]pyrrolo[1,2-a][1,4]diazacyclopentadecin-6-yl)isoxazole-3-carboxamide] | 8.00 to 9.00 | 6.60 to 7.30 | 7.70 to 8.52
CCc1nc2cccc(F)c2nc1O[C@@H]1C[C@H]2C(=O)N[C@]3(C(=O)NS(=O)(=O)C4CC4)C[C@H]3/C=C\CCCCC[C@H](NC(=O)c3cc(C)on3)C(=O)N2C1 [Example 162, N-((2R,6S,13aS,14aR,16aS,Z)-14a-(cyclopropylsulfonylcarbamoyl)-2-(3-ethyl-8-fluoroquinoxalin-2-yloxy)-5,16-dioxo-1,2,3,5,6,7,8,9,10,11,13a,14,14a,15,16,16a-hexadecahydrocyclopropa[e]pyrrolo[1,2-a][1,4]diazacyclopentadecin-6-yl)-5-methylisoxazole-3-carboxamide] | 8.00 to 9.00 | 6.60 to 7.30 | 7.70 to 8.52
CCc1nc2cccc(F)c2nc1O[C@@H]1C[C@H]2C(=O)N[C@]3(C(=O)NS(=O)(=O)C4CC4)C[C@H]3/C=C\CCCCC[C@H](NC(=O)c3noc(C)c3C)C(=O)N2C1 [Example 163, N-((2R,6S,13aS,14aR,16aS,Z)-14a-(cyclopropylsulfonylcarbamoyl)-2-(3-ethyl-8-fluoroquinoxalin-2-yloxy)-5,16-dioxo-1,2,3,5,6,7,8,9,10,11,13a,14,14a,15,16,16a-hexadecahydrocyclopropa[e]pyrrolo[1,2-a][1,4]diazacyclopentadecin-6-yl)-4,5-dimethylisoxazole isoxazole-3-carboxamide] | > 9.00 | 7.30 to 7.60 | > 8.52

— US9493506B2 (Enanta Pharmaceuticals, Inc., priority 2010, dated 2016)
